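Dose response: 5 concentrations. Exposure: 48 h. Format: 96-well plates. Endpoint: linear interpolation; highest concentration if not reached. TGI: concentration producing complete growth inhibition.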
Assays:
Test in all cases: NCI anticancer screen, dose series, 48 h
786-0 renal = tested on: 786-0 renal
A498 renal = tested on: A498 renal
A549 NSCLC = tested on: A549 NSCLC
ACHN renal = tested on: ACHN renal
BT-549 breast = tested on: BT-549 breast
CAKI-1 renal = tested on: CAKI-1 renal
COLO 205 colon = tested on: COLO 205 colon
DU-145 prostate = tested on: DU-145 prostate
EKVX NSCLC = tested on: EKVX NSCLC
HCC-2998 colon = tested on: HCC-2998 colon
HCT-116 colon = tested on: HCT-116 colon
HCT-15 colon = tested on: HCT-15 colon
HL-60(TB) leukemia = tested on: HL-60(TB) leukemia
HOP-62 NSCLC = tested on: HOP-62 NSCLC
HOP-92 NSCLC = tested on: HOP-92 NSCLC
HS 578T breast = tested on: HS 578T breast
HT29 colon = tested on: HT29 colon
IGROV1 ovarian = tested on: IGROV1 ovarian
K-562 leukemia = tested on: K-562 leukemia
KM12 colon = tested on: KM12 colon
LOX IMVI melanoma = tested on: LOX IMVI melanoma
M14 melanoma = tested on: M14 melanoma
MALME-3M melanoma = tested on: MALME-3M melanoma
MCF7 breast = tested on: MCF7 breast
MDA-MB-231 breast = tested on: MDA-MB-231 breast
MDA-MB-435 = tested on: MDA-MB-435
MDA-N = tested on: MDA-N
MOLT-4 leukemia = tested on: MOLT-4 leukemia
NCI-H226 lung = tested on: NCI-H226 lung
NCI-H23 lung = tested on: NCI-H23 lung
NCI-H460 lung = tested on: NCI-H460 lung
NCI-H522 lung = tested on: NCI-H522 lung
NCI/ADR-RES ovarian = tested on: NCI/ADR-RES ovarian
OVCAR-3 ovarian = tested on: OVCAR-3 ovarian
OVCAR-4 ovarian = tested on: OVCAR-4 ovarian
OVCAR-5 ovarian = tested on: OVCAR-5 ovarian
OVCAR-8 ovarian = tested on: OVCAR-8 ovarian
PC-3 prostate = tested on: PC-3 prostate
RPMI-8226 leukemia = tested on: RPMI-8226 leukemia
RXF 393 renal = tested on: RXF 393 renal
SF-268 CNS = tested on: SF-268 CNS
SF-295 CNS = tested on: SF-295 CNS
SF-539 CNS = tested on: SF-539 CNS
SK-MEL-2 melanoma = tested on: SK-MEL-2 melanoma
SK-MEL-28 melanoma = tested on: SK-MEL-28 melanoma
SK-MEL-5 melanoma = tested on: SK-MEL-5 melanoma
SK-OV-3 ovarian = tested on: SK-OV-3 ovarian
SN12C renal = tested on: SN12C renal
SNB-19 CNS = tested on: SNB-19 CNS
SNB-75 CNS = tested on: SNB-75 CNS
SR leukemia = tested on: SR leukemia
SW-620 colon = tested on: SW-620 colon
T-47D breast = tested on: T-47D breast
TK-10 renal = tested on: TK-10 renal
U251 CNS = tested on: U251 CNS
UACC-257 melanoma = tested on: UACC-257 melanoma
UACC-62 melanoma = tested on: UACC-62 melanoma
UO-31 renal = tested on: UO-31 renal
CCRF-CEM leukemia = tested on: CCRF-CEM leukemia

## O=C(/C=C1\C[C@H]2C=Nc3ccccc3C(=O)N2C1)NCCCNC(=O)/C=C1\C[C@H]2C=Nc3ccccc3C(=O)N2C1
786-0 renal
  TGI: 10.9 µM
A498 renal
  TGI: 31.5 µM
A549 NSCLC
  TGI: 46.5 µM
ACHN renal
  TGI: 28.1 µM
BT-549 breast
  TGI: 30.3 µM
CAKI-1 renal
  TGI: 27.2 µM
COLO 205 colon
  TGI: 26.2 µM
DU-145 prostate
  TGI: 35.9 µM
EKVX NSCLC
  TGI: 38 µM
HCC-2998 colon
  TGI: 35.1 µM
HCT-116 colon
  TGI: 30.5 µM
HCT-15 colon
  TGI: 36.9 µM
HL-60(TB) leukemia
  TGI: 32 µM
HOP-62 NSCLC
  TGI: 35.8 µM
HOP-92 NSCLC
  TGI: 35.4 µM
HS 578T breast
  TGI: > 100 µM
HT29 colon
  TGI: 32.2 µM
IGROV1 ovarian
  TGI: 31 µM
K-562 leukemia
  TGI: 29.4 µM
KM12 colon
  TGI: 31.2 µM
LOX IMVI melanoma
  TGI: 22.6 µM
M14 melanoma
  TGI: 28 µM
MALME-3M melanoma
  TGI: 30 µM
MCF7 breast
  TGI: 42 µM
MDA-MB-231 breast
  TGI: 29.7 µM
MDA-MB-435
  TGI: 34.3 µM
MDA-N
  TGI: 32.3 µM
MOLT-4 leukemia
  TGI: 7.37 µM
NCI-H226 lung
  TGI: 36.3 µM
NCI-H23 lung
  TGI: 30.4 µM
NCI-H460 lung
  TGI: 36.2 µM
NCI-H522 lung
  TGI: 4.21 µM
NCI/ADR-RES ovarian
  TGI: 48.4 µM
OVCAR-3 ovarian
  TGI: 31.3 µM
OVCAR-4 ovarian
  TGI: 35.6 µM
OVCAR-5 ovarian
  TGI: 36.2 µM
OVCAR-8 ovarian
  TGI: 33.2 µM
PC-3 prostate
  TGI: 31.4 µM
RPMI-8226 leukemia
  TGI: 40 µM
RXF 393 renal
  TGI: 27.9 µM
SF-268 CNS
  TGI: 30.8 µM
SF-295 CNS
  TGI: 36.9 µM
SF-539 CNS
  TGI: 34.9 µM
SK-MEL-2 melanoma
  TGI: 33.6 µM
SK-MEL-28 melanoma
  TGI: 35.5 µM
SK-MEL-5 melanoma
  TGI: 30.2 µM
SK-OV-3 ovarian
  TGI: 36.4 µM
SN12C renal
  TGI: 37.9 µM
SNB-19 CNS
  TGI: 31.4 µM
SNB-75 CNS
  TGI: 31.1 µM
SR leukemia
  TGI: 4.62 µM
SW-620 colon
  TGI: 28.3 µM
T-47D breast
  TGI: 60.1 µM
TK-10 renal
  TGI: 34 µM
U251 CNS
  TGI: 26.6 µM
UACC-257 melanoma
  TGI: 30.3 µM
UACC-62 melanoma
  TGI: 29.3 µM
UO-31 renal
  TGI: 28.4 µM

## COC1CC(C)(N)C(O)C(C)O1 (stereo not given)
786-0 renal
  TGI: > 100 µM
A498 renal
  TGI: > 100 µM
A549 NSCLC
  TGI: > 100 µM
ACHN renal
  TGI: > 100 µM
BT-549 breast
  TGI: > 100 µM
CAKI-1 renal
  TGI: > 100 µM
CCRF-CEM leukemia
  TGI: > 100 µM
COLO 205 colon
  TGI: > 100 µM
DU-145 prostate
  TGI: > 100 µM
EKVX NSCLC
  TGI: > 100 µM
HCC-2998 colon
  TGI: > 100 µM
HCT-116 colon
  TGI: > 100 µM
HCT-15 colon
  TGI: > 100 µM
HL-60(TB) leukemia
  TGI: > 100 µM
HOP-62 NSCLC
  TGI: > 100 µM
HOP-92 NSCLC
  TGI: > 100 µM
HS 578T breast
  TGI: > 100 µM
HT29 colon
  TGI: > 100 µM
IGROV1 ovarian
  TGI: > 100 µM
K-562 leukemia
  TGI: > 100 µM
KM12 colon
  TGI: > 100 µM
LOX IMVI melanoma
  TGI: > 100 µM
M14 melanoma
  TGI: > 100 µM
MALME-3M melanoma
  TGI: > 100 µM
MCF7 breast
  TGI: > 100 µM
MDA-MB-231 breast
  TGI: > 100 µM
MDA-MB-435
  TGI: > 100 µM
MDA-N
  TGI: > 100 µM
MOLT-4 leukemia
  TGI: > 100 µM
NCI-H226 lung
  TGI: > 100 µM
NCI-H23 lung
  TGI: > 100 µM
NCI-H460 lung
  TGI: > 100 µM
NCI-H522 lung
  TGI: > 100 µM
NCI/ADR-RES ovarian
  TGI: > 100 µM
OVCAR-3 ovarian
  TGI: > 100 µM
OVCAR-8 ovarian
  TGI: > 100 µM
PC-3 prostate
  TGI: > 100 µM
RPMI-8226 leukemia
  TGI: > 100 µM
RXF 393 renal
  TGI: > 100 µM
SF-268 CNS
  TGI: > 100 µM
SF-295 CNS
  TGI: > 100 µM
SF-539 CNS
  TGI: > 100 µM
SK-MEL-2 melanoma
  TGI: > 100 µM
SK-MEL-28 melanoma
  TGI: > 100 µM
SK-MEL-5 melanoma
  TGI: > 100 µM
SK-OV-3 ovarian
  TGI: > 100 µM
SN12C renal
  TGI: > 100 µM
SNB-19 CNS
  TGI: > 100 µM
SNB-75 CNS
  TGI: > 100 µM
SR leukemia
  TGI: > 100 µM
SW-620 colon
  TGI: > 100 µM
T-47D breast
  TGI: > 100 µM
TK-10 renal
  TGI: > 100 µM
U251 CNS
  TGI: > 100 µM
UACC-257 melanoma
  TGI: > 100 µM
UACC-62 melanoma
  TGI: > 100 µM
UO-31 renal
  TGI: > 100 µM

Reference: PubChem BioAssay (NCI)
